For test [1], the target named is Protein arginine N-methyltransferase 8 (Homo sapiens, UniProt Q9NR22). Description: Inhibition of human PRMT8 using Histone H4 as substrate and SAM as cofactor at 10 uM by radiometric HotSpot assay relative to control.
Test [2] has as its target T1, Histone-arginine methyltransferase CARM1 (Homo sapiens) (UniProt Q86X55).
T1 sequence (whole entry): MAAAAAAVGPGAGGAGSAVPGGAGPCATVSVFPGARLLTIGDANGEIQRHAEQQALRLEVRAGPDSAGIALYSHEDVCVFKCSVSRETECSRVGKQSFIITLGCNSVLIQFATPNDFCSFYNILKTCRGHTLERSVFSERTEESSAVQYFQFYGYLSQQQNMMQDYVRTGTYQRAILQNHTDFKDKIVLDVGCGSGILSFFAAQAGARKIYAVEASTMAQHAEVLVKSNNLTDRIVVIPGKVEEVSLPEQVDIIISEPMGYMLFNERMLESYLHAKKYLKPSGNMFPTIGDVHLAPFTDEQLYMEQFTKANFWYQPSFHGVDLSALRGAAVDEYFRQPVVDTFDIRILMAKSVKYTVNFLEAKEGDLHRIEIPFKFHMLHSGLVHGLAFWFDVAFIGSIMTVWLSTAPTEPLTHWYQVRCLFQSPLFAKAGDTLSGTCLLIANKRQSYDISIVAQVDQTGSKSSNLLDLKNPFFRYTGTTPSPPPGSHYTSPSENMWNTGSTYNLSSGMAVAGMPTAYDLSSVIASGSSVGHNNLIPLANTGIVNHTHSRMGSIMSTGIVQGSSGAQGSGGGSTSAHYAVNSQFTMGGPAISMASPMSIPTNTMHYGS
Nature of the test: Inhibition of human PRMT4 using histone H3 as substrate and SAM as cofactor at 10 uM by radiometric HotSpot assay relative to control.

The target of test [3] is Protein arginine N-methyltransferase 3 (Homo sapiens, UniProt O60678). Description: Inhibition of human PRMT3 using H4-21peptide as substrate at 10 uM incubated for 10 mins by fluorescence based analysis relative to control.
Protein arginine N-methyltransferase 3, sequence (O60678 2-531 limits assumed): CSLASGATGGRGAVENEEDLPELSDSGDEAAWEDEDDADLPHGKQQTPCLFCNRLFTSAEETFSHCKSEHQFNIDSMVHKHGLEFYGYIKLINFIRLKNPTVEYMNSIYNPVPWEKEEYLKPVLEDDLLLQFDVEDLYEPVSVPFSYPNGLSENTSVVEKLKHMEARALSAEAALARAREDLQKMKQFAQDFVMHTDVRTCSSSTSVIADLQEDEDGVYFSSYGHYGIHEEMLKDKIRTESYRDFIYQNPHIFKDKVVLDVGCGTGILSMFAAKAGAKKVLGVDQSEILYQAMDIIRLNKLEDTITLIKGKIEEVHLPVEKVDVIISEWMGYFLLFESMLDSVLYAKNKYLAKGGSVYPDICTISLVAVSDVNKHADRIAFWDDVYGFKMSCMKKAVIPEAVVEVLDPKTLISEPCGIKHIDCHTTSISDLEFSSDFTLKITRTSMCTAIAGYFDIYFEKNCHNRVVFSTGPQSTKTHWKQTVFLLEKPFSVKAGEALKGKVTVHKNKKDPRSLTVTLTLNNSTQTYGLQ
The target of test [4] is Protein arginine N-methyltransferase 6 (Homo sapiens, UniProt Q96LA8). Description: Inhibition of human PRMT6 using GST-GAR as substrate and SAM as cofactor at 10 uM by radiometric HotSpot assay relative to control.
Protein arginine N-methyltransferase 6, sequence (Q96LA8 whole entry, looked up): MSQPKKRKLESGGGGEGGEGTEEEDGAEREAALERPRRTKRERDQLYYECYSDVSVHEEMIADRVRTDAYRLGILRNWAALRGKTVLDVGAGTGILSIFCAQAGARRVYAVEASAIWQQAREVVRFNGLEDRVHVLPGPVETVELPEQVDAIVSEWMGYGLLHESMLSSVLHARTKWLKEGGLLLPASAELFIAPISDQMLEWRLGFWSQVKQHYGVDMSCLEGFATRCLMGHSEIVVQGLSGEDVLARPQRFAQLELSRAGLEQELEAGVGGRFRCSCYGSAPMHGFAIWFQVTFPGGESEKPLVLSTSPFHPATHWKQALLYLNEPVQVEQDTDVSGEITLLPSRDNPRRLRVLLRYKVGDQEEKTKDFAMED
The target of test [5] is Protein arginine N-methyltransferase 1 (Homo sapiens, UniProt Q99873). Description: Inhibition of human PRMT1 using H4-21peptide as substrate at 10 uM incubated for 10 mins by fluorescence based analysis relative to control.
Protein arginine N-methyltransferase 1, sequence (Q99873 whole entry, looked up): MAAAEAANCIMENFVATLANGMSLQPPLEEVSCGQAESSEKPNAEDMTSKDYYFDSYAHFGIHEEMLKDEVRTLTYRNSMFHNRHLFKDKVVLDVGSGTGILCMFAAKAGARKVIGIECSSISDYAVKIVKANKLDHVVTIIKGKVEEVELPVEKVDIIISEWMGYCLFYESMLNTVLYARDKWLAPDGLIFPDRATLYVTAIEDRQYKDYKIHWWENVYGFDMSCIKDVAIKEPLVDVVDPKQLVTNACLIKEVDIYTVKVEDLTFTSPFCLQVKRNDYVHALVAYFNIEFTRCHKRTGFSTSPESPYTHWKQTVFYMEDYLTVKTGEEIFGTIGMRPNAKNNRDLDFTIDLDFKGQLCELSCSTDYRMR

Protein arginine N-methyltransferase 8, sequence (Q9NR22 2-394 limits assumed): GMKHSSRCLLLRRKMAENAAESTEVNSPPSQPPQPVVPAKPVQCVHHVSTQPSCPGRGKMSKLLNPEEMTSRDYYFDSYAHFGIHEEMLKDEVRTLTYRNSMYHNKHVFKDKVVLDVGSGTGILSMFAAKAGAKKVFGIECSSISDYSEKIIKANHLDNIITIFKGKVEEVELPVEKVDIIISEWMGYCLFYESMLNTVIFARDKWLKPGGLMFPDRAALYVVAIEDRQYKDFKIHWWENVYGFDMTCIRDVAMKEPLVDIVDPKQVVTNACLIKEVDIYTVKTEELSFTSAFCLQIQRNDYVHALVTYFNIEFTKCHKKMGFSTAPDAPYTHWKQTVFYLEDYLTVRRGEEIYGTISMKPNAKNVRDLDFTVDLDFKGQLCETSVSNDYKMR

Take `Nc1ncnc2c1ncn2[C@@H]1O[C@H](CSCCNCc2cccc(-c3cccc(O)c3)c2)[C@@H](O)[C@H]1O`: the inhibition in test [1] was greater than 50%; in test [2], greater than 90%; in test [3], less than 30%; in test [4], 50%.
As to `Nc1ncnc2c1ncn2[C@@H]1O[C@H](CSCCNCc2cccc(-c3ccc(C(F)(F)F)cc3)c2)[C@@H](O)[C@H]1O`, the inhibition in test [1] is greater than 50%; in test [2] it was greater than 90%; in test [3] it was less than 30%; in test [4], 50%.
Take `Nc1ncnc2c1ncn2[C@@H]1O[C@H](CSCCNCc2cccc(-c3ccccc3O)c2)[C@@H](O)[C@H]1O`: the inhibition in test [1] is greater than 50%; in test [2], greater than 90%; in test [3] it was less than 30%; in test [4], 50%.
Taken in the same sequence, the figures for `Nc1ncnc2c1ncn2[C@@H]1O[C@H](CSCCNCc2cccc(-c3ccc(Cl)cc3)c2)[C@@H](O)[C@H]1O` were greater than 50%, greater than 90%, less than 30% and 50%.
With `Nc1ncnc2c1ncn2[C@@H]1O[C@H](CSCCCNCc2cccc(-c3ccc(O)cc3)c2)[C@@H](O)[C@H]1O`, the inhibition in test [1] is greater than 50%; in test [2] it was greater than 90%; in test [3], less than 30%; in test [4], 50%.
Regarding `N=C(NCCCSC[C@H]1O[C@@H](n2cnc3c(N)ncnc32)[C@H](O)[C@@H]1O)Nc1cccc(-c2ccc(F)c(O)c2)c1`, the inhibition in test [1] is greater than 95%; in test [2], greater than 90%; in test [4] it was greater than 90%; in test [5] it was greater than 50%.
For the molecule `Nc1ncnc2c1ncn2[C@@H]1O[C@H](CSCCCNCc2cccc(-c3ccc(Cl)cc3)c2)[C@@H](O)[C@H]1O`, the inhibition in test [1] was greater than 50%; in test [2], greater than 90%; in test [3], less than 30%; in test [4], 50%.
`Nc1ncnc2c1ncn2[C@@H]1O[C@H](CSCCNCc2cccc(-c3ccc(O)cc3)c2)[C@@H](O)[C@H]1O`: the inhibition in test [1] was greater than 50%; in test [2], greater than 90%; in test [3] it was less than 30%; in test [4], 50%.
`N=C(NCCSC[C@H]1O[C@@H](n2cnc3c(N)ncnc32)[C@H](O)[C@@H]1O)NCc1ccccc1`: the inhibition in test [1] was greater than 95%; in test [2], greater than 90%; in test [4], greater than 90%; in test [5], greater than 50%.
Take `Nc1ncnc2c1ncn2[C@@H]1O[C@H](CSCCNCc2cccc(-c3cccc(F)c3)c2)[C@@H](O)[C@H]1O`: the inhibition in test [1] is greater than 50%; in test [2] it was greater than 90%; in test [3], less than 30%; in test [4], 50%.
Regarding `Nc1ncnc2c1ncn2[C@@H]1O[C@H](CSCCCNCc2cccc(-c3ccc(C(F)(F)F)cc3)c2)[C@@H](O)[C@H]1O`, the inhibition in test [1] was greater than 50%; in test [2], greater than 90%; in test [3] it was less than 30%; in test [4], 50%.
`Nc1ncnc2c1ncn2[C@@H]1O[C@H](CSCCCNCc2cccc(-c3cccc(F)c3)c2)[C@@H](O)[C@H]1O`: the inhibition in test [1] is greater than 50%; in test [2] it was greater than 90%; in test [3] it was less than 30%; in test [4], 50%.
Taken in the same sequence, the figures for `Nc1ncnc2c1ncn2[C@@H]1O[C@H](CSCCNCc2cccc(-c3cccc4cn[nH]c34)c2)[C@@H](O)[C@H]1O` were greater than 50%, greater than 90%, less than 30% and 50%.
`Nc1ncnc2c1ncn2[C@@H]1O[C@H](CSCCCNCc2cccc(-c3ccoc3)c2)[C@@H](O)[C@H]1O`: the inhibition in test [1] is greater than 50%; in test [2] it was greater than 90%; in test [3], less than 30%; in test [4], 50%.
For the molecule `N=C(NCCCSC[C@H]1O[C@@H](n2cnc3c(N)ncnc32)[C@H](O)[C@@H]1O)Nc1cccc(-c2ccc(Cl)cc2)c1`, the inhibition was greater than 95% in test [1], greater than 90% in test [2], greater than 90% in test [4] and greater than 50% in test [5].
For `N=C(NCCSC[C@H]1O[C@@H](n2cnc3c(N)ncnc32)[C@H](O)[C@@H]1O)Nc1cccc(-c2ccc(C(F)(F)F)cc2)c1`, the inhibition in test [1] was greater than 95%; in test [2], greater than 90%; in test [4], greater than 90%; in test [5] it was greater than 50%.
In the case of `N=C(NCCCSC[C@H]1O[C@@H](n2cnc3c(N)ncnc32)[C@H](O)[C@@H]1O)Nc1cccc(-c2ccc(C(F)(F)F)cc2)c1`, the inhibition is greater than 95% in test [1], greater than 90% in test [2], greater than 90% in test [4] and greater than 50% in test [5].
Regarding `N=C(NCCSC[C@H]1O[C@@H](n2cnc3c(N)ncnc32)[C@H](O)[C@@H]1O)Nc1cccc(-c2cccc(F)c2)c1`, the inhibition in test [1] is greater than 95%; in test [2], greater than 90%; in test [4] it was greater than 90%; in test [5], greater than 50%.
For the molecule `N=C(NCCCSC[C@H]1O[C@@H](n2cnc3c(N)ncnc32)[C@H](O)[C@@H]1O)Nc1cccc(-c2cccc(F)c2)c1`, the inhibition was greater than 95% in test [1], greater than 90% in test [2], greater than 90% in test [4] and greater than 50% in test [5].
As to `N=C(NCCCSC[C@H]1O[C@@H](n2cnc3c(N)ncnc32)[C@H](O)[C@@H]1O)Nc1cccc(-c2ccc(F)cc2F)c1`, the inhibition in test [1] was greater than 95%; in test [2] it was greater than 90%; in test [4] it was greater than 90%; in test [5] it was greater than 50%.
On to `Nc1ncnc2c1ncn2[C@@H]1O[C@H](CSCCCNCc2cccc(-c3ccc(F)c(O)c3)c2)[C@@H](O)[C@H]1O`, for which the inhibition is greater than 50% in test [1], greater than 90% in test [2], less than 30% in test [3] and 50% in test [4].
Turning to `N=C(NCCCSC[C@H]1O[C@@H](n2cnc3c(N)ncnc32)[C@H](O)[C@@H]1O)Nc1cccc(-c2ccc3c(c2)OCCO3)c1`, the inhibition in test [1] is greater than 95%; in test [2], greater than 90%; in test [4], greater than 90%; in test [5], greater than 50%.
On to `N=C(NCCCSC[C@H]1O[C@@H](n2cnc3c(N)ncnc32)[C@H](O)[C@@H]1O)Nc1cccc(-c2n[nH]cc2C(F)(F)F)c1`, for which the inhibition was greater than 95% in test [1], greater than 90% in test [2], greater than 90% in test [4] and greater than 50% in test [5].
On to `N=C(NCCCSC[C@H]1O[C@@H](n2cnc3c(N)ncnc32)[C@H](O)[C@@H]1O)NCc1ccccc1`, for which the inhibition in test [1] is greater than 95%; in test [2], greater than 90%; in test [4], greater than 90%; in test [5] it was greater than 50%.
In the case of `N=C(NCCCSC[C@H]1O[C@@H](n2cnc3c(N)ncnc32)[C@H](O)[C@@H]1O)Nc1cccc(-c2ccoc2)c1`, the inhibition in test [1] was greater than 95%; in test [2] it was greater than 90%; in test [4], greater than 90%; in test [5], greater than 50%.
As to `N=C(NCCCSC[C@H]1O[C@@H](n2cnc3c(N)ncnc32)[C@H](O)[C@@H]1O)Nc1cccc(-c2ccc(O)cc2)c1`, the inhibition in test [1] was greater than 95%; in test [2], greater than 90%; in test [4] it was greater than 90%; in test [5], greater than 50%.
As to `Nc1cccc(-c2cccc(CNCCSC[C@H]3O[C@@H](n4cnc5c(N)ncnc54)[C@H](O)[C@@H]3O)c2)c1`, the inhibition is greater than 50% in test [1], greater than 90% in test [2], less than 30% in test [3] and 50% in test [4].
As for `N=C(NCCCSC[C@H]1O[C@@H](n2cnc3c(N)ncnc32)[C@H](O)[C@@H]1O)Nc1ccccc1`, the inhibition in test [1] is greater than 95%; in test [2], greater than 90%; in test [4], greater than 90%; in test [5], greater than 50%.
As to `N=C(NCCSC[C@H]1O[C@@H](n2cnc3c(N)ncnc32)[C@H](O)[C@@H]1O)Nc1cccc(-c2ccoc2)c1`, the inhibition in test [1] was greater than 95%; in test [2], greater than 90%; in test [4], greater than 90%; in test [5], greater than 50%.
For the molecule `N=C(NCCCSC[C@H]1O[C@@H](n2cnc3c(N)ncnc32)[C@H](O)[C@@H]1O)Nc1cccc(Br)c1`, the inhibition in test [1] was greater than 95%; in test [2] it was greater than 90%; in test [4], greater than 90%; in test [5], greater than 50%.
`N=C(NCCCSC[C@H]1O[C@@H](n2cnc3c(N)ncnc32)[C@H](O)[C@@H]1O)Nc1cccc(-c2cncnc2)c1`: the inhibition in test [1] was greater than 95%; in test [2], greater than 90%; in test [4] it was greater than 90%; in test [5], greater than 50%.

(Values after ChEMBL document CHEMBL5608259 (J Med Chem, 2024).)
